Patent US10358427B2, “Modulators of indoleamine 2,3-dioxygenase” (GLAXOSMITHKLINE INTELLECTUAL PROPERTY DEVELOPMENT LIMITED, priority 2015, dated 2019)
Counter-ions that a name gives are not always drawn.

Key:
[1] = target: T1, indoleamine 2, 3-dioxygenase (IDO1) (Homo sapiens, UniProt P14902); test: HeLa IDOi assay (kynurenine detection via mass spectrometry); type: cell-based; parameters: human epithelial HeLa cells (CCL-2; host or cells: HeLa cells stimulated with human IFN-γ; conditions: human epithelial HeLa cells stimulated with IFN-γ; kynurenine by mass spectrometry; 2 days incubation
T1 sequence (P14902 whole entry): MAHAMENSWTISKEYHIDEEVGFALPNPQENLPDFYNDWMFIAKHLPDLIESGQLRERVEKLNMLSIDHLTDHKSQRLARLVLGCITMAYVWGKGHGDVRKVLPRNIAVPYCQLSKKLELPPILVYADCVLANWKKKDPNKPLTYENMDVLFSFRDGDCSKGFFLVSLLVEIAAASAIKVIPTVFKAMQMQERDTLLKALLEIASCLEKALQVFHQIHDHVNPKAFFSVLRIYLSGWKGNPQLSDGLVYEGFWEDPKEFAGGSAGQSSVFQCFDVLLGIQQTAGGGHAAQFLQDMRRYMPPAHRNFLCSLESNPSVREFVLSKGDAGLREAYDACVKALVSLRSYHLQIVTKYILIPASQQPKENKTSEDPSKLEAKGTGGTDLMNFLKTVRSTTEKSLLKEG
Protocol: (§1) Compounds of the present invention were tested via high-throughput cellular assays utilizing detection of kynurenine via mass spectrometry and cytotoxicity as end-points. For the mass spectrometry and cytotoxicity assays, human epithelial HeLa cells (CCL-2; ATCC®, Manassas, Va.) were stimulated with human interferon-γ (IFN-γ) (Sigma-Aldrich Corporation, St. Louis, Mo.) to induce the expression of indoleamine 2, 3-dioxygenase (IDO1). Compounds with IDO1 inhibitory properties decreased the amount of kynurenine produced by the cells via the tryptophan catabolic pathway. Cellular toxicity due to the effect of compound treatment was measured using CellTiter-Glo® reagent (CTG) (Promega Corporation, Madison, Wis.), which is based on luminescent detection of ATP, an indicator of metabolically active cells.
(§2) In preparation for the assays, test compounds were serially diluted 3-fold in DMSO from a typical top concentration of 5 mM and plated at 0.5 μL in 384-well, polystyrene, clear bottom, tissue culture treated plates with lids (Greiner Bio-One, Kremsmünster, Austria) to generate 11-point dose response curves. Low control wells (0% kynurenine or 100% cytotoxicity) contained either 0.5 μL of DMSO in the presence of unstimulated (−IFN-γ) HeLa cells for the mass spectrometry assay or 0.5 μL of DMSO in the absence of cells for the cytotoxicity assay, and high control wells (100% kynurenine or 0% cytotoxicity) contained 0.5 μL of DMSO in the presence of stimulated (+IFN-γ) HeLa cells for both the mass spectrometry and cytotoxicity assays.
Frozen stocks of HeLa cells were washed and recovered in DMEM high glucose medium with HEPES (Thermo Fisher Scientific, Inc., Waltham, Mass.) supplemented with 10% v/v certified fetal bovine serum (FBS) (Thermo Fisher Scientific, Inc., Waltham, Mass.), and 1× penicillin-streptomycin antibiotic solution (Thermo Fisher Scientific, Inc., Waltham, Mass.). The cells were diluted to 100,000 cells/mL in the supplemented DMEM medium. 50 μL of either the cell suspension, for the mass spectrometry assay, or medium alone, for the cytotoxicity assay, were added to the low control wells, on the previously prepared 384-well compound plates, resulting in 5,000 cells/well or 0 cells/well respectively. IFN-γ was added to the remaining cell suspension at a final concentration of 10 nM, and 50 μL of the stimulated cells were added to all remaining wells on the 384-well compound plates. The plates, with lids, were then placed in a 37° C., 5% CO2 humidified incubator for 2 days.
(§3) Following incubation, the 384-well plates were removed from the incubator and allowed to equilibrate to room temperature for 30 minutes. For the cytotoxicity assay, CellTiter-Glo® was prepared according to the manufacturer's instructions, and 10 μL were added to each plate well. After a twenty minute incubation at room temperature, luminescence was read on an EnVision® Multilabel Reader (PerkinElmer Inc., Waltham, Mass.). For the mass spectrometry assay, 10 μL of supernatant from each well of the compound-treated plates were added to 40 μL of acetonitrile, containing 10 μM of an internal standard for normalization, in 384-well, polypropylene, V-bottom plates (Greiner Bio-One, Kremsmünster, Austria) to extract the organic analytes. Following centrifugation at 2000 rpm for 10 minutes, 10 μL from each well of the acetonitrile extraction plates were added to 90 μL of sterile, distilled H2O in 384-well, polypropylene, V-bottom plates for analysis of kynurenine and the internal standard on the RapidFire 300 (Agilent Technologies, Santa Clara, Calif.) and 4000 QTRAP MS (SCIEX, Framingham, Mass.). MS data were integrated using Agilent Technologies' RapidFire Integrator software, and data were normalized for analysis as a ratio of kynurenine to the internal standard. […]

[2] = target: T1, indoleamine 2, 3-dioxygenase (IDO1); test: PBMC IDOi assay (kynurenine detection via mass spectrometry); type: cell-based; conditions: human PBMC stimulated with IFN-γ and LPS; kynurenine by mass spectrometry; 2 days incubation
Protocol: as §1, with “peripheral blood mononuclear” for “epithelial HeLa”, “(PBMC) (PB003F; AlICells®, Alameda, Calif.)” for “(CCL-2; ATCC®, Manassas, Va.)”, “Mo.) and lipopolysaccharide from Salmonella minnesota (LPS) (Invivogen, San Diego, Calif.)” for “Mo.)”
as §2, with “(−IFN-γ/−LPS) PBMCs” for “(−IFN-γ) HeLa cells”, “(+IFN-γ/+LPS) PBMCs” for “(+IFN-γ) HeLa cells”
Frozen stocks of PBMCs were washed and recovered in RPMI 1640 medium (Thermo Fisher Scientific, Inc., Waltham, Mass.) supplemented with 10% v/v heat-inactivated fetal bovine serum (FBS) (Thermo Fisher Scientific, Inc., Waltham, Mass.), and 1× penicillin-streptomycin antibiotic solution (Thermo Fisher Scientific, Inc., Waltham, Mass.). The cells were diluted to 1,000,000 cells/mL in the supplemented RPMI 1640 medium. 50 μL of either the cell suspension, for the mass spectrometry assay, or medium alone, for the cytotoxicity assay, were added to the low control wells, on the previously prepared 384-well compound plates, resulting in 50,000 cells/well or 0 cells/well respectively. IFN-γ and LPS were added to the remaining cell suspension at final concentrations of 100 ng/ml and 50 ng/ml respectively, and 50 μL of the stimulated cells were added to all remaining wells on the 384-well compound plates. The plates, with lids, were then placed in a 37° C., 5% CO2 humidified incubator for 2 days.
as §3, with “and 40” for “and 10”

Compound	EC50 [1]	EC50 [2]
C/C=C/Cc1cc(-c2ccccc2-c2nnn[nH]2)cc(Nc2nc3ccccc3o2)c1OCCC [Example 13, (E)-N-(5-(But-2-en-1-yl)-4-propoxy-2′-(1H-tetrazol-5-yl)-[1,1′-biphenyl]-3-yl)benzo[d]oxazol-2-amine, Trifluoroacetic acid Salt]	3.98 nM	7.94 nM
CC(C)CN(c1ccc(-c2ccccc2-c2nnn[nH]2)cc1Nc1nnc(C2CC2)s1)C1CCCCC1 [Example 21, N^4-Cyclohexyl-N^3-(5-cyclopropyl-1,3,4-thiadiazol-2-yl)-N^4-isobutyl-2′-(1H-tetrazol-5-yl)-[1,1′-biphenyl]-3,4-diamine]	3.16 nM	1.58 nM
CC(C)CN(c1ccc(-c2ccccc2C(=O)O)cc1Nc1nnc(C2CC2)s1)C1CCCCC1 [Example 20, 4′-(Cyclohexyl(isobutyl)amino)-3′((5-cyclopropyl-1,3,4-thiadiazol-2-yl)amino)-[1,1′-biphenyl]-2-carboxylic acid]	2 nM	0.794 nM

Second part, the molecule after the results:

EC50 [1]	EC50 [2]	Compound
79.4 nM	39.8 nM	CC(C)CN(c1ccc(-c2ccccc2C(=O)O)cc1Nc1nc2ccccc2o1)C1CCCCC1 [Example 7, 3′-(Benzo[d]oxazol-2-ylamino)-4′-(cyclohexyl(isobutyl)amino)-[1,1′-biphenyl]-2-carboxylic acid]
6.31 nM	1.58 nM	CC(C)CN(c1ccc(-c2ccccc2-c2nnn[nH]2)cc1Nc1nc2ccccc2[nH]1)C1CCCCC1 [Example 19, N^3-(1H-benzo[d]imidazol-2-yl)-N^4-cyclohexyl-N^4-isobutyl-2′-(1H-tetrazol-5-yl)-[1,1′-biphenyl]-3,4-diamine]
10 nM	2.51 nM	CC(C)CN(c1ccc(-c2ccccc2C(=O)O)cc1Nc1nc(Cl)ns1)C1CCCCC1 [Example 9, 3′-((3-Chloro-1,2,4-thiadiazol-5-yl)amino)-4′-(cyclohexyl(isobutyl)amino)-[1,1′-biphenyl]-2-carboxylic acid]
